Assay results: PubChem BioAssay (NCI)
Values joined by “and” are separate entries in the source; they are usually repeats but may differ in a detail not shown here. Equal values may be shown once.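 These data come from cells grown in 96-well plates and exposed to compound for 48 hours at five concentrations. The concentration for 50% growth inhibition is given as GI50. TGI denotes the concentration required for complete inhibition of growth.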

Legend:
Experiment in all cases: growth of human tumour cells (NCI), 48 h
A549 NSCLC = test system: A549 NSCLC
NCI/ADR-RES ovarian = test system: NCI/ADR-RES ovarian
SK-MEL-5 melanoma = test system: SK-MEL-5 melanoma
SF-268 CNS = test system: SF-268 CNS
MCF7 breast = test system: MCF7 breast
786-0 renal = test system: 786-0 renal
HT29 colon = test system: HT29 colon
NCI-H226 lung = test system: NCI-H226 lung
NCI-H23 lung = test system: NCI-H23 lung
NCI-H522 lung = test system: NCI-H522 lung

Row | SMILES | GI50 (A549 NSCLC) | TGI (A549 NSCLC) | GI50 (NCI/ADR-RES ovarian) | TGI (NCI/ADR-RES ovarian) | GI50 (SK-MEL-5 melanoma) | TGI (SK-MEL-5 melanoma) | GI50 (SF-268 CNS) | TGI (SF-268 CNS) | GI50 (MCF7 breast) | TGI (MCF7 breast) | GI50 (786-0 renal) | TGI (786-0 renal) | GI50 (HT29 colon) | TGI (HT29 colon) | GI50 (NCI-H226 lung) | TGI (NCI-H226 lung) | GI50 (NCI-H23 lung) | TGI (NCI-H23 lung) | GI50 (NCI-H522 lung) | TGI (NCI-H522 lung)
1 | Cc1ccc(NC(=O)Nc2c(Cl)cccc2Cl)cn1 | 8.51 µM | 43 µM | 4.46 µM | 70.3 µM | 5.06 µM | > 100 µM | 14.5 µM | > 100 µM | 7.29 µM | > 100 µM | 61.2 µM | > 100 µM | 3.93 µM | 15.6 µM | > 100 µM | > 100 µM | 26.1 µM | > 100 µM | 12.5 µM | 44 µM
2 | COc1ccc(C(=O)O[C@H]2[C@H](O[C@H]3[C@@H](O)COC(O[C@H]4C[C@H]5[C@@H]6CC=C7C[C@@H](O)CC[C@]7(C)[C@H]6CC[C@]5(C)[C@H]4[C@H](C)C(=O)CCC(C)C)[C@@H]3OC(C)=O)OC[C@@H](O)[C@@H]2O)c(C)c1 (stereo partly drawn) | < 0.01 µM | > 100 µM | 8.48 µM | 86.1 µM | < 0.01 µM | 0.0141 µM | < 0.01 µM | 3.4 µM | < 0.01 µM | 11 µM | < 0.01 µM | 7.38 µM | 0.0712 µM | 21.6 µM | 0.0423 µM | 30.6 µM | 0.0574 µM | 15.4 µM | 0.0114 µM | 0.607 µM
3 | O=c1c2ccccc2nc(-c2ccccc2Cl)n1-c1nnc(C(F)(F)F)s1 | 3.26 µM | > 100 µM | 3.13 µM | > 100 µM | 1.99 µM | 4.91 µM | 4.36 µM | > 100 µM | 3.03 µM | > 100 µM | 3.18 µM | 11.4 µM | 3.18 µM | 13.6 µM | 2.4 µM | 8.55 µM | 3.23 µM | 17.3 µM | 2.43 µM | 8.25 µM
4 | CC[C@]1(O)CC2CN(CCc3c([nH]c4ccccc34)[C@@](C(=O)OC)(c3cc4c(cc3OC)N(C=O)[C@H]3[C@@](O)(C(=O)OC)[C@H](OC(C)=O)[C@]5(CC)C=CCN6CC[C@]43[C@@H]65)C2)C1 (stereo partly drawn) | 0.0172 µM | > 50 µM | 0.698 µM | > 13.3 µM | < 0.005 µM | 0.059 µM | < 0.005 µM | > 50 µM | < 0.005 µM | > 50 µM | 0.014 µM | > 22.5 µM | < 0.005 µM | 0.0195 µM | < 0.005 µM | 0.0319 µM | < 0.005 µM | > 50 µM | < 0.005 µM | < 0.005 µM
5 | NC(=O)CC1(O)C=C(Br)C(=O)C(Br)=C1 | 19 µM | 37.8 µM | 10.1 µM | > 94.4 µM | 12.5 µM | 25.6 µM | 9.09 µM | 21.2 µM | 3.3 µM | 15.3 µM | 8.76 µM | > 35.7 µM | 4.03 µM | 19 µM | 20.5 µM | 46.3 µM | 8.99 µM | 24.6 µM | 0.326 µM | 1.44 µM
6 | O=C1C=CC(=Nc2cccc3c(N=C4C=CC(=O)O4)cccc23)O1 |  | > 100 µM |  | > 100 µM |  | > 100 µM |  | > 100 µM |  | > 100 µM |  | 34.5 µM |  | > 100 µM |  | > 100 µM |  | > 100 µM |  | 34.3 µM
7 | Nc1cc(C(F)(F)F)c(-c2cc(N3CCOCC3)nc(N3CCOCC3)n2)cn1 | 1.17 µM and 1.29 µM | 7.06 µM and 4.99 µM | 0.753 µM and 0.856 µM | 3.45 µM and > 21.5 µM | 0.797 µM and 0.587 µM | 3.05 µM and 2.56 µM | 0.925 µM and 1.42 µM | > 9.53 µM and 7.1 µM | 0.228 µM and 0.257 µM | > 10 µM and 4.05 µM | 1.65 µM and 2.1 µM | 9.77 µM and 8.63 µM | 0.547 µM and 0.531 µM | > 7.41 µM and 3.66 µM | 0.839 µM and 0.592 µM | 4.42 µM and 4.6 µM | 1.17 µM and 1.28 µM | > 84.6 µM | 0.504 µM and 0.29 µM | 3.93 µM and 1.64 µM
8 | NC1=NC(=O)/C(=C/c2ccc3ncccc3c2)S1 | > 25 µM | > 25 µM | > 25 µM | > 25 µM | > 25 µM | > 25 µM | > 25 µM | > 25 µM | > 12.2 µM | > 25 µM | > 25 µM | > 25 µM | > 25 µM | > 25 µM | > 25 µM | > 25 µM | > 25 µM | > 25 µM | > 18.4 µM | > 25 µM
9 | COc1ccccc1/C=C/C1=C(C)CCC(c2ccccc2OC)C1C (stereo not drawn) | 0.223 µM |  | 0.105 µM |  | 0.122 µM | 0.379 µM | 0.201 µM | > 73 µM | 0.0633 µM | 1.28 µM | 0.196 µM | 2.51 µM | 0.167 µM |  | 0.223 µM | 0.627 µM | 0.188 µM | 13.6 µM | 0.113 µM | 
10 | CC(c1ccccc1)[C@@H](C(=O)Nc1ccc(I)cc1F)N1C(=O)N[C@H](c2ccc(OC[C@H](O)CO)cc2)C1=O (stereo partly drawn) | > 14.3 µM | > 25 µM | > 25 µM | > 25 µM | 0.85 µM | > 25 µM | 15.2 µM | > 25 µM | > 15 µM | > 25 µM | > 14.4 µM | > 25 µM | 0.0683 µM | > 25 µM | 14.5 µM | > 25 µM | 0.902 µM | > 25 µM | > 17.8 µM | > 25 µM
11 | N#Cc1ccccc1C#C/C=C\C#CC#C/C=C\C#Cc1ccccc1C#N | 11 µM | > 100 µM | 18.5 µM | 68.2 µM | 10.4 µM | 27.9 µM | 12 µM | > 100 µM | 47.4 µM | > 100 µM | 16.6 µM | 42.1 µM | 3.39 µM | 94.4 µM | 29.7 µM | > 100 µM | 3.14 µM | 19.7 µM | 3.15 µM | 14.9 µM
12 | O=C(COc1ccc(OCC(=O)N2C(=O)CN(c3ccccc3)C2=S)cc1)N1C(=O)CN(c2ccccc2)C1=S | > 25 µM | > 100 µM | > 25 µM | > 100 µM | > 100 µM | > 100 µM |  | > 100 µM |  | > 100 µM | > 25 µM | > 100 µM | > 25 µM | > 100 µM |  | > 100 µM | > 25 µM | > 100 µM | > 25 µM | > 100 µM
13 | CCOC(=O)/C(C#N)=C1\SS/C(=C(/C#N)C(=O)OCC)S1 | 40 µM | > 100 µM | 25.8 µM | 65.3 µM | 32 µM | > 100 µM | 20.5 µM | 41 µM | 18.3 µM | 41.1 µM | 19.2 µM | 34.1 µM | 3.92 µM | 22.3 µM | 19.6 µM | 38.6 µM | 23.5 µM | 61.2 µM | 2.47 µM | 7.59 µM
